Article PMC11742723, “The clinical-stage drug BTZ-043 accumulates in murine tuberculosis lesions and efficiently acts against Mycobacterium tuberculosis” (Nature Communications, 2025)
Several values for one entry are separate records, joined by “and”; a condition that tells them apart may be missing. Equal entries are not always repeated. Where two headings read alike, the source gives them in different places.

Columns and labels:
[1] = for ng BTZ-043 / mg cryosection: individual cryosections; for BTZ-043 concentration in lung cryosections: Mtb-infected IL-13tg mice, 10 daily doses 250 mg/kg, one mouse each, n=5 cryosections, 250 mg/kg
[2] = BALB/c, mouse, in vivo
Caco-2 cell monolayers [3] = assay: In vitro permeability assay in Caco-2 monolayers; conditions: direction AB, time 60 min
[4] = In vitro permeability assay in Caco-2 monolayers; conditions: human, Caco-2
Caco-2 cell monolayers [5] = test system: Caco-2 cell monolayers

For `C[C@H]1COC2(CCN(c3nc(=O)c4cc(C(F)(F)F)cc([N+](=O)[O-])c4s3)CC2)O1` [BTZ-043], the “ng BTZ-043 / mg cryosection” value ([1]; 2 h after administration, mouse KW116 B9#1 (male)) was 1.02 ng / mg cryosection and 0.92 ng / mg cryosection and 0.62 ng / mg cryosection, the “ng BTZ-043 / mg cryosection” value ([1]; 8 h after administration, mouse KW116 B15#1 (female)) was 0.27 ng / mg cryosection (2×) and 0.21 ng / mg cryosection and 0.36 ng / mg cryosection and the “pulmonary drug concentrations in lung cryosections” value ([1]; IL-13tg mice, until 8 h after administration) was 270 to 1940 ng/g. For the same molecule, the “BTZ-043 concentration in lung cryosections” value ([1]; 0.5 h after last administration) was 1.32 ± 0.33 ng/mg cryosection, the “BTZ-043 concentration in lung cryosections” value ([1]; 2 h after last administration) was 1.10 ± 0.25 ng/mg cryosection and the “BTZ-043 concentration in lung cryosections” value ([1]; 4 h after last administration) was 0.79 ± 0.12 ng/mg cryosection and 1.94 ± 0.37 ng/mg cryosection. For the same molecule, the “BTZ-043 concentration in lung cryosections” value ([1]; 8 h after last administration) was 0.27 ± 0.05 ng/mg cryosection and 0.65 ± 0.06 ng/mg cryosection, the “pulmonary BTZ-043 concentrations relative to the MIC” value ([1]; all time points investigated (0.5-8 h), n=8 mice) was “substantially higher than the MIC at all time points investigated” and the “BTZ-043 concentration in the whole section above the MIC” value ([1]; lung cryosections, 4 and 8 h) was “at least 100 x”. The “AUC at which BTZ-043total exposure reaches saturation” value [2] was ~30,000 h·ng/mL, the “Cmax at which BTZ-043total exposure reaches saturation” value [2] was “around 8000 ng/mL” and the Tmax [2] was 30 to 60 min. The AUCinf ([2]; po, 2.5 mg/kg/day) was 666 ng·h/mL, the Cmax ([2]; po, 2.5 mg/kg/day) was 520 ng/mL and the Tmax ([2]; po, 2.5 mg/kg/day) was 30 min. For the same molecule, the AUCinf ([2]; po, 5 mg/kg/day) was 1,360 h·ng/mL, the Cmax ([2]; po, 5 mg/kg/day) was 1,050 ng/mL and the Tmax ([2]; po, 5 mg/kg/day) was 30 min. The AUCinf ([2]; po, 50 mg/kg/day) was 14,700 h·ng/mL, the Cmax ([2]; po, 50 mg/kg/day) was 8070 ng/mL and the Tmax ([2]; po, 50 mg/kg/day) was 30 min. The Concentration (Caco-2 cell monolayers [3]; BTZ-043 4 μg mL^-1, replicates 1-3) was 124.355 ng/mL, the “Calculated Amount” value (Caco-2 cell monolayers [3]; BTZ-043 (4 µg mL^-1), compartment baso) was 124.355 and the Papp A→B at 120 min [4] was 9.44 to 11.3 ×10⁻⁶ cm/s. For the same molecule, the Papp at 120 min, 4 µg/mL [4] was 11.3 ×10⁻⁶ cm/s, the efflux ratio at 120 min, 1 µg/mL [4] was 0.73 and the efflux ratio at 120 min, 4 µg/mL [4] was 1.14. The permeability classification (Caco-2 cell monolayers [5]) was “permeable drug” and the “transport mechanism indicated by efflux ratios” value (Caco-2 cell monolayers [5]) was “passive diffusion is dominant over active transport mechanisms”.
